Patent US12617773B2, “Azetidin-3-ylmethanol derivatives as CCR6 receptor modulators” (Idorsia Pharmaceuticals Ltd, priority 2020, dated 2026)

These compounds were tested against T1, human CCR6 (Homo sapiens, UniProt P51684) (assay: FLIPR assay (inhibition of CCL20-induced calcium signal)). Settings: HEK-293 cells expressing human CCR6; mean values where determined several times; read-out: FLIPR IC50.
T1 construct: expressed in transfected cells; host or cells: HEK-293
T1 sequence (P51684 1-374): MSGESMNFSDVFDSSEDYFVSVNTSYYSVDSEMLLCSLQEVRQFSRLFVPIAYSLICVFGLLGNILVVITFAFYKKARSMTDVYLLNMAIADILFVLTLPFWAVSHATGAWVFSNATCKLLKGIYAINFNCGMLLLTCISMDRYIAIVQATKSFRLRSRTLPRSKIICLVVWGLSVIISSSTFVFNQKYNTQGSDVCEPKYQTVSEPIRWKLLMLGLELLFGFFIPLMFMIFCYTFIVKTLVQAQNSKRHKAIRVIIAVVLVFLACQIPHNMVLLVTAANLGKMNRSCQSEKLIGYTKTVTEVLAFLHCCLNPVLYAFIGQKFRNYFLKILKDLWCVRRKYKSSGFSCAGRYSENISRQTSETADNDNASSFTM
Assay type: cell-based
Procedure, shortened: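 IC50 values come from baseline-corrected peak calcium fluorescence after agonist. The agonist was CCL20 at 10 nM final, added to engineered human CCR6 HEK-293 cells following a 30-min, room-temperature, dark preincubation with serially diluted compound. Readings were taken in a fluorometric imaging plate reader.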

IC50	SMILES
0.0952 µM	CC(C)c1ccc([C@](O)(c2cnnc(N3CC(C(F)(F)F)CC3=O)c2)C2(C)CN(C)C2)cc1 (stereo partly shown) [Example 437]
0.0536 µM	CC(C)c1ccc([C@](O)(c2cnnc(N3CC(C4CC4)CC3=O)c2)C2(C)CN(C)C2)cc1 (stereo partly shown) [Example 438]
0.265 µM	CC(C)c1ccc([C@](O)(c2cnnc(N3CC4(CCOCC4)CC3=O)c2)C2(C)CN(C)C2)cc1 [Example 439]
0.0507 µM	CC(C)c1ccc([C@](O)(c2cnnc(N3CC4(CCCCC4)OC3=O)c2)C2(C)CN(C)C2)cc1 [Example 440]
0.118 µM	CC(C)c1ccc([C@](O)(c2cnnc(N3CC(c4ccccn4)CC3=O)c2)C2(C)CN(C)C2)cc1 (stereo partly shown) [Example 441]
0.177 µM	COCCC1CCN(c2cc([C@@](O)(c3ccc(C(C)C)cc3)C3(C)CN(C)C3)cnn2)C1=O (stereo partly shown) [Example 442]
0.0353 µM	CC(C)c1ccc([C@](O)(c2cnnc(N3CC(c4ccccc4)CC3=O)c2)C2(C)CN(C)C2)cc1 (stereo partly shown) [Example 443]
0.0334 µM	CC(C)c1ccc([C@](O)(c2cnnc(N3Cc4ccccc4C3=O)c2)C2(C)CN(C)C2)cc1 [Example 444]
0.0448 µM	CC(C)c1ccc([C@](O)(c2cncc(-c3noc(C(C)(C)O)n3)c2)C2(F)CN(C)C2)cc1 [Example 445, 2-(3-{5-[(S)-(3-Fluoro-1-methyl-azetidin-3-yl)-hydroxy-(4-isopropyl-phenyl)-methyl]-pyridin-3-yl}-[1,2,4]oxadiazol-5-yl)-propan-2-ol]
0.0484 µM	CC(C)c1ccc([C@](O)(c2cncc(-c3noc(C(C)(C)O)n3)c2)C2(F)CN(C3CC3)C2)cc1 [Example 446, 2-(3-{5-[(S)-(1-Cyclopropyl-3-fluoro-azetidin-3-yl)-hydroxy-(4-isopropyl-phenyl)-methyl]-pyridin-3-yl}-[1,2,4]oxadiazol-5-yl)-propan-2-ol]
0.0432 µM	CC(=O)N1CCC(c2nc(-c3cncc([C@@](O)(c4ccc(C(C)C)cc4)C4(F)CN(C)C4)c3)no2)CC1 [Example 447, 1-[4-(3-{5-[(S)-(3-Fluoro-1-methyl-azetidin-3-yl)-hydroxy-(4-isopropyl-phenyl)-methyl]-pyridin-3-yl}-[1,2,4]oxadiazol-5-yl)-piperidin-1-yl]-ethanone]
0.0352 µM	CC(=O)N1CCC(c2nc(-c3cncc([C@@](O)(c4ccc(C(C)C)cc4)C4(F)CN(C5CC5)C4)c3)no2)CC1 [Example 448, 1-[4-(3-{5-[(S)-(1-Cyclopropyl-3-fluoro-azetidin-3-yl)-hydroxy-(4-isopropyl-phenyl)-methyl]-pyridin-3-yl}-[1,2,4]oxadiazol-5-yl)-piperidin-1-yl]-ethanone]
0.0408 µM	CC(C)c1ccc([C@](O)(c2cncc(-c3noc(C(C)(C)O)n3)c2)C2(C)CN(C3CC3)C2)cc1 [Example 449, 2-(3-{5-[(R)-(1-Cyclopropyl-3-methyl-azetidin-3-yl)-hydroxy-(4-isopropyl-phenyl)-methyl]-pyridin-3-yl}-[1,2,4]oxadiazol-5-yl)-propan-2-ol]
0.0578 µM	CC(=O)N1CCC(c2nc(-c3cncc([C@@](O)(c4ccc(C(C)C)cc4)C4(C)CN(C5CC5)C4)c3)no2)CC1 [Example 450]
0.0435 µM	CC(C)c1ccc([C@](O)(c2cncc(-c3noc(C4CCOCC4)n3)c2)C2(C)CN(C3CC3)C2)cc1 [Example 451]
0.0336 µM	CC(C)c1ccc([C@](O)(c2cncc(-c3noc([C@H]4CC[C@H](O)CC4)n3)c2)C2(C)CN(C3CC3)C2)cc1 [Example 452]
0.0581 µM	CC(C)c1ccc([C@](O)(c2cncc(-c3noc(C4COC4)n3)c2)C2(C)CN(C3CC3)C2)cc1 [Example 453]
0.103 µM	CC(=O)N1CC[C@H](Cc2nc(-c3cncc([C@@](O)(c4ccc(C(C)C)cc4)C4(C)CN(C)C4)c3)no2)C1 [Example 454, 1-[(R)-3-(3-{5-[(R)-(1,3-Dimethyl-azetidin-3-yl)-hydroxy-(4-isopropyl-phenyl)-methyl]-pyridin-3-yl}-[1,2,4]oxadiazol-5-ylmethyl)-pyrrolidin-1-yl]-ethanone]
0.0831 µM	CC(=O)N1CCCC(c2nc(-c3cncc([C@@](O)(c4ccc(C(C)C)cc4)C4(C)CN(C)C4)c3)no2)C1 (stereo partly shown) [Example 455]
0.201 µM	CC(=O)N1CCCC(O)(c2nc(-c3cncc([C@@](O)(c4ccc(C(C)C)cc4)C4(C)CN(C)C4)c3)no2)C1 (stereo partly shown) [Example 456]
0.0564 µM	CC(=O)N1CCCC(C)(c2nc(-c3cncc([C@@](O)(c4ccc(C(C)C)cc4)C4(C)CN(C)C4)c3)no2)C1 (stereo partly shown) [Example 457]
0.099 µM	CC(=O)N1CCCC(Cc2nc(-c3cncc([C@@](O)(c4ccc(C(C)C)cc4)C4(C)CN(C)C4)c3)no2)C1 (stereo partly shown) [Example 458]

IC50	SMILES
0.44 µM	CC(=O)N1CCC(O)(Cc2nc(-c3cncc([C@@](O)(c4ccc(C(C)C)cc4)C4(C)CN(C)C4)c3)no2)CC1 [Example 459]
0.469 µM	CC(=O)NC1(Cc2nc(-c3cncc([C@@](O)(c4ccc(C(C)C)cc4)C4(C)CN(C)C4)c3)no2)CC1 [Example 460, N-[1-(3-{5-[(R)-(1,3-Dimethyl-azetidin-3-yl)-hydroxy-(4-isopropyl-phenyl)-methyl]-pyridin-3-yl}-[1,2,4]oxadiazol-5-ylmethyl)-cyclopropyl]-acetamide]
0.384 µM	CC(C)c1ccc([C@](O)(c2cncc(-c3noc(CC4(NC(=O)C5CCOCC5)CC4)n3)c2)C2(C)CN(C)C2)cc1 [Example 461]
0.286 µM	COCC(=O)NC1(Cc2nc(-c3cncc([C@@](O)(c4ccc(C(C)C)cc4)C4(C)CN(C)C4)c3)no2)CC1 [Example 462]
0.122 µM	CC(=O)N(C)C1(Cc2nc(-c3cncc([C@@](O)(c4ccc(C(C)C)cc4)C4(C)CN(C)C4)c3)no2)CC1 [Example 463, N-[1-(3-{5-[(R)-(1,3-Dimethyl-azetidin-3-yl)-hydroxy-(4-isopropyl-phenyl)-methyl]-pyridin-3-yl}-[1,2,4]oxadiazol-5-ylmethyl)-cyclopropyl]-N-methyl-acetamide]
0.129 µM	CCC(=O)NC(C)(C)Cc1nc(-c2cncc([C@@](O)(c3ccc(C(C)C)cc3)C3(C)CN(C)C3)c2)no1 [Example 464, N-[2-(3-{5-[(R)-(1,3-Dimethyl-azetidin-3-yl)-hydroxy-(4-isopropyl-phenyl)-methyl]-pyridin-3-yl}-[1,2,4]oxadiazol-5-yl)-1,1-dimethyl-ethyl]-propionamide]
0.0875 µM	COCC(=O)NC(C)(C)Cc1nc(-c2cncc([C@@](O)(c3ccc(C(C)C)cc3)C3(C)CN(C)C3)c2)no1 [Example 465]
0.143 µM	CC(C)c1ccc([C@](O)(c2cncc(-c3noc(CC(C)(C)NC(=O)C4CCOCC4)n3)c2)C2(C)CN(C)C2)cc1 [Example 466]
0.129 µM	CC(C)C(=O)NC(C)(C)Cc1nc(-c2cncc([C@@](O)(c3ccc(C(C)C)cc3)C3(C)CN(C)C3)c2)no1 [Example 467]
0.0623 µM	CC(C)c1ccc([C@](O)(c2cncc(-c3noc(CC(C)(C)NC(=O)C4CC4)n3)c2)C2(C)CN(C)C2)cc1 [Example 468]
0.137 µM	CC(=O)N1CC[C@H](c2nc(-c3cncc([C@@](O)(c4ccc(C(C)C)cc4)C4(C)CN(C)C4)c3)no2)C[C@@H]1C [Example 469]
0.131 µM	CC(C)C(=O)N1CCC(O)(c2nc(-c3cncc([C@@](O)(c4ccc(C(C)C)cc4)C4(C)CN(C)C4)c3)no2)CC1 [Example 470]
0.125 µM	CCC(=O)N1CCC(O)(c2nc(-c3cncc([C@@](O)(c4ccc(C(C)C)cc4)C4(C)CN(C)C4)c3)no2)CC1 [Example 471]
0.0798 µM	COC1(c2nc(-c3cncc([C@@](O)(c4ccc(C(C)C)cc4)C4(C)CN(C)C4)c3)no2)CCN(C(C)=O)CC1 [Example 472]
0.0776 µM	CC(C)c1ccc([C@](O)(c2cncc(-c3noc(C4CCN(C(=O)CC(F)(F)F)CC4)n3)c2)C2(C)CN(C)C2)cc1 [Example 473, 1-[4-(3-{5-[(R)-(1,3-Dimethyl-azetidin-3-yl)-hydroxy-(4-isopropyl-phenyl)-methyl]-pyridin-3-yl}-[1,2,4]oxadiazol-5-yl)-piperidin-1-yl]-3,3,3-trifluoro-propan-1-one]
0.121 µM	CC(C)c1ccc([C@](O)(c2cncc(-c3noc(C4CCN(C(=O)CC5COC5)CC4)n3)c2)C2(C)CN(C)C2)cc1 [Example 474, 1-[4-(3-{5-[(R)-(1,3-Dimethyl-azetidin-3-yl)-hydroxy-(4-isopropyl-phenyl)-methyl]-pyridin-3-yl}-[1,2,4]oxadiazol-5-yl)-piperidin-1-yl]-2-oxetan-3-yl-ethanone]
0.0547 µM	CCC1(c2nc(-c3cncc([C@@](O)(c4ccc(C(C)C)cc4)C4(C)CN(C)C4)c3)no2)CCN(C(C)=O)CC1 [Example 475]
0.112 µM	CC(C)c1ccc([C@](O)(c2cncc(-c3noc(C4CCN(C(=O)C5COC5)CC4)n3)c2)C2(C)CN(C)C2)cc1 [Example 476]
0.0339 µM	COCC(=O)N1CCC(c2nc(-c3cncc([C@@](O)(c4ccc(C(C)C)cc4)C4(C)CN(C)C4)c3)no2)(C(C)C)CC1 [Example 477]
0.112 µM	CC(C)c1ccc([C@](O)(c2cncc(-c3noc(C4CCC(=O)N(C)C4)n3)c2)C2(C)CN(C)C2)cc1 (stereo partly drawn) [Example 479, 5-(3-{5-[(R)-(1,3-Dimethyl-azetidin-3-yl)-hydroxy-(4-isopropyl-phenyl)-methyl]-pyridin-3-yl}-[1,2,4]oxadiazol-5-yl)-1-methyl-piperidin-2-one]
0.128 µM	CC(C)c1ccc([C@](O)(c2cncc(-c3noc(C4(C)CCC(=O)NC4)n3)c2)C2(C)CN(C)C2)cc1 (stereo partly shown) [Example 480]
